From US20100130829A1, “MATERIALS AND METHODS FOR DETECTING EARLY CELL MIGRATION EVENTS” (priority 2008, published 2010)

Molecular target: beta2-adrenergic receptors in A431 (Homo sapiens, UniProt P07550)
Settings: quiescent A431 cells; epinephrine gradient; responses resembled classical dose-dependent responses
Experimental: Human epidermoid carcinoma A431 cells were obtained from American Type Cell Culture. A431 cells were grown in Dulbecco's modified Eagle's medium (DMEM) supplemented with 10% fetal bovine serum (FBS), 4.5 g/liter glucose, 2 mM glutamine, and antibiotics. For cell culture, ˜4×10^4 cells suspended in 6 μl the medium containing 10% FBS were injected into the chamber, and were cultured at 37° C. under air/5% CO2 until ˜95% confluency was reached (˜1 day). To prevent drying during the culture, the biosensor device was maintained within a petri dish with a cover, and extra cell medium within the dish. The cells were then subject to starvation with the medium without any FBS for overnight. […] The optical system allows one to collect the resonant image of whole sensor at the single cell.
Coming RWG imaging system was used for label-free biosensor cell assays. The imaging system is capable of high resolution imaging, with a spatial resolution of 6 microns in the direction perpendicular to the propagation path of the coupled light, a resolution of about 150 microns in the direction parallel to the propagation path of the coupled light. The cellular responses across the whole sensor were recorded in real time at each pixel (6 microns×6 microns). The cellular responses at defined locations or zones from the inlet to the outlet were averaged to generate location-dependent cellular responses. […]

Chain of beta2-adrenergic receptors in A431 (P07550 whole entry): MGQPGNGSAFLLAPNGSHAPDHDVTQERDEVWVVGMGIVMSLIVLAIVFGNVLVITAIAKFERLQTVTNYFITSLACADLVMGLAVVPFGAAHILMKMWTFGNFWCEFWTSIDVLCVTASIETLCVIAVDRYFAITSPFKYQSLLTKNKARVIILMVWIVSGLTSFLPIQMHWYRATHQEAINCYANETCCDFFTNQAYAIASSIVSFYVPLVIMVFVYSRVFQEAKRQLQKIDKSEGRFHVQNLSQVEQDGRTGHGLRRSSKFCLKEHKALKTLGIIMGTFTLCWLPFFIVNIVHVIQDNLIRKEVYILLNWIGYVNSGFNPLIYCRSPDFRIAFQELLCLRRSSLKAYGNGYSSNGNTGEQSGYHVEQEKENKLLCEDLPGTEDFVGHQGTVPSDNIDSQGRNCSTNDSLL

Q: How did the “chemoattractant determination from location-dependent DMR responses” value turn out when `CNC[C@H](O)c1ccc(O)c(O)c1` [epinephrine] was run?
A: not a chemoattractant
